The text below walks through data of patent EP0627929B1, “INHIBITORS OF THROMBOSIS” (CORVAS INTERNATIONAL, INC., priority 1992, dated 1993).

Test [1] addresses human plasmin (Homo sapiens, UniProt P00747). The test is described as follows: Plasmin assay: inhibition of chromogenic substrate (S-2251) hydrolysis. The note with it: purified human plasmin 1.0 nM, substrate 300 µM, 30 minute incubation, HBSA pH 7.5. It is filed as biochemical. The method, then: In the assays for thrombin, factor Xa and plasmin, a chromogenic synthetic substrate is added to a solution containing test compound and the enzyme of interest and the residual catalytic activity of that enzyme is determined spectrophometrically. The IC50 of compound is determined from the substrate turnover. […] The buffer used for all assays was HBSA (10 mM HEPES, pH 7.5, 150 mM sodium chloride, 0.1% bovine serum albumin). […] Following a 30 minute incubation at ambient temperature, 50 μL of the substrate at the concentrations specified below, was added to the wells yielding a final total volume of 200 μL. […] Plasmin catalytic activity was determined using the chromogenic substrate, […] dihydrochloride], which was obtained from Kabi Diagnostica.

Test [2] addresses T1, Human factor Xa (Homo sapiens, UniProt P00742).
T1 construct: Human factor Xa was prepared from purified human factor X obtained from Enzyme Research Laboratories; purchased Enzyme Research Laboratories
In words: Factor Xa assay: inhibition of chromogenic substrate (S2765) hydrolysis. The format is biochemical. The note with it: human factor Xa 0.5 nM, substrate 250 µM, 30 minute incubation, HBSA pH 7.5. The method, then: In the assays for thrombin, factor Xa and plasmin, a chromogenic synthetic substrate is added to a solution containing test compound and the enzyme of interest and the residual catalytic activity of that enzyme is determined spectrophometrically. The IC50 of compound is determined from the substrate turnover. […] The buffer used for all assays was HBSA (10 mM HEPES, pH 7.5, 150 mM sodium chloride, 0.1% bovine serum albumin). […] Following a 30 minute incubation at ambient temperature, 50 μL of the substrate at the concentrations specified below, was added to the wells yielding a final total volume of 200 μL. […] Factor Xa catalytic activity was determined using the substrate, S2765 (N-α-benzyloxycarbonyl-[…]-nitroanilide dihydrochloride) which was obtained from Kabi Diagnostica. […] Human factor Xa was prepared from purified human factor X obtained from Enzyme Research Laboratories according to the method described by Bock, P.E. et al., Archives of Biochem. Biophys. […] The enzyme was diluted into HBSA prior to the assay in which the final concentration was 0.5 nM.

In test [3] the target is human α-thrombin (Homo sapiens, UniProt P00734). The test is described as follows: Thrombin assay: inhibition of chromogenic substrate (Pefachrome t-PA) hydrolysis. It is filed as biochemical. To be noted: purified human α-thrombin 0.25 nM, substrate 300 µM, 30 minute incubation, HBSA pH 7.5. The protocol: In the assays for thrombin, factor Xa and plasmin, a chromogenic synthetic substrate is added to a solution containing test compound and the enzyme of interest and the residual catalytic activity of that enzyme is determined spectrophometrically. The IC50 of compound is determined from the substrate turnover. […] The buffer used for all assays was HBSA (10 mM HEPES, pH 7.5, 150 mM sodium chloride, 0.1% bovine serum albumin). […] Following a 30 minute incubation at ambient temperature, 50 µL of the substrate at the concentrations specified below, was added to the wells yielding a final total volume of 200 µL.

Test [4] relates to FeCl3-induced platelet-dependent arterial thrombosis. The note with it: rat, [Isolated clot/(Intact segment-Empty segment)] X 100, mean ± S.E.M., control 68.65±3.75.
Protocol: In this model a platelet-rich, occlusive thrombus is formed in a segment of the rat carotid artery treated with a fresh solution of FeCl3 absorbed to a piece of filter paper. […] The effect of a test compound on the incidence of occlusive thrombus formation following the application of the FeCl3 is monitored by ultrasonic flowtometry and is used as the primary end point.
Male Harlan Sprague Dawley rats (420-450 g) were acclimated at least 72 hours prior to use and fasted for 12 hours prior to surgery with free access to water. The animals were prepared, anesthetized with Nembutal with catheters for blood pressure monitoring, drug and anesthesia delivery being implanted as described above. The left carotid artery was isolated by making a midline cervical incision followed by blunt dissection and spreading techniques to separate a 2 cm segment of the vessel from the carotid sheath. A silk suture is inserted under the proximal and distal ends of the isolated vessel to provide clearance for the placement of a ultrasonic flow probe (Transonic) around the proximal end of the vessel. The probe is then secured with a stationary arm.
The test compounds were administered as described above after placement of the flow probe and stabilization of the preparation for a period of 30 min prior to the thrombogenic stimulus. At t=0, a 3mm diameter piece of filter paper (Whatman #3) soaked with 10 mL of a 35% solution of fresh FeCl3 (made up in water) was applied the segment of isolated carotid artery distal to the flow probe. Blood pressure, blood flow, heart rate, and respiration were monitored for 60 minutes.
The incidence of occlusion (defined as the attainment of zero blood flow) was recorded as the primary end point. Following the 60 minute observation period the flow probe was removed and the area cleared of all excess fluid. The distal and proximal sutures were tied off and arterial clamps placed on the far proximal and distal ends of the segment. […] The segment was reweighed following removal of the clot and the difference recorded as total % clot weight. […]

Read-outs that look alike come from different tables or passages of the source. Peptide text beside a SMILES is read from it. * marks the point of attachment. Hydrocinnamoyl = O=C(CCc1ccccc1)*

human plasmin, sequence (P00747 581-810 limits assumed): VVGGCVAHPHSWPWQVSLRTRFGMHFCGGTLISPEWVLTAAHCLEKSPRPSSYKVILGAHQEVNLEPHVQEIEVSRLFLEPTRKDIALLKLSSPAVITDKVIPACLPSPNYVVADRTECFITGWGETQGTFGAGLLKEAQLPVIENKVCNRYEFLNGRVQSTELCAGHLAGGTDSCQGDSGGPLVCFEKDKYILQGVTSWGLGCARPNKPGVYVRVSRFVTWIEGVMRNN
human plasmin, sequence (P00747 97-580 partner limits assumed): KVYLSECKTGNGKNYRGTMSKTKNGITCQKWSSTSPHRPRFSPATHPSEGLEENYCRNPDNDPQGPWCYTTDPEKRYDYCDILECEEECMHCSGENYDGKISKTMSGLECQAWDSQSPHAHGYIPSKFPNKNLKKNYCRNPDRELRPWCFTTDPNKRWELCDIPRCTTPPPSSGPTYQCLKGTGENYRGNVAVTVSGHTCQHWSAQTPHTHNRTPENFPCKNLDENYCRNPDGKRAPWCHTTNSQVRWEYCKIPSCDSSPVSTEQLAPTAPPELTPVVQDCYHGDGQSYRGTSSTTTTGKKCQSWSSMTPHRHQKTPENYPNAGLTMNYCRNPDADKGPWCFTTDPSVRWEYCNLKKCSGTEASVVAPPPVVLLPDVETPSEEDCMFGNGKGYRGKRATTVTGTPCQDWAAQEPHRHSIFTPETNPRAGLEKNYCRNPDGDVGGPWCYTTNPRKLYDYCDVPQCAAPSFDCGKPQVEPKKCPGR
T1 sequence (P00742 235-488 limits assumed): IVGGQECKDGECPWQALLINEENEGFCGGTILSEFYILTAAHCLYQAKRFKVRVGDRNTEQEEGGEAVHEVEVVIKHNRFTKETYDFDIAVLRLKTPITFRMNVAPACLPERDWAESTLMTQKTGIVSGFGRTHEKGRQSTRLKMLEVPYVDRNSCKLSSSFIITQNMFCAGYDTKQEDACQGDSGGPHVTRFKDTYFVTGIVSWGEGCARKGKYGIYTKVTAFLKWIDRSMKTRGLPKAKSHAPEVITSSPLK
T1 sequence (P00742 41-179 partner limits assumed): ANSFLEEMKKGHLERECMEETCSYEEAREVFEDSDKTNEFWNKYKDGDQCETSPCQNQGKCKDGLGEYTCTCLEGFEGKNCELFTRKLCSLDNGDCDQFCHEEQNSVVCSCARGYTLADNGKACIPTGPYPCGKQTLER

A word on the IC50: it is the point on the concentration scale where inhibition reaches its midpoint. Low values mean greater potency, high ones weaker potency. On to `CCCC(CCC)C(=O)N[C@@H](CC(=O)OC)C(=O)N1CCC[C@H]1C(=O)N[C@H](C=O)CCCNC(=N)N` [2PrPent-Asp(OCH3)-Pro-Arg-al], for which the IC50 in test [1] is 326 nM; in test [2], 293 nM.
Turning to `CCCC(CCC)C(=O)N[C@@H](CC(=O)O)C(=O)N1CCC[C@H]1C(=O)N[C@H](C=O)CCCNC(=N)N` [2PrPent-Asp-Pro-Arg-al, N-(2-propylpentanoyl)-L-aspartyl-L-prolyl-L-argininal], the IC50 in test [1] was 283 nM; in test [2], 173 nM; in test [3] it was 8.5 nM.
Turning to “3-tetrazolyl-2-(4-methylvaleroylamido) propionoyl-L-prolyl-L-argininal [4MeV-Ala(Tzl)-Pro-Arg-al]”, the results for the IC50 in test [1], in test [2] and in test [3] were 500 nM, 64.5 nM and 88 nM, respectively.
As to `N=C(N)NCCC[C@@H](C=O)NC(=O)[C@@H]1CCCN1C(=O)[C@H](CC(=O)O)NC(=O)CC1CCCCC1` [ChxAc-Asp-Pro-Arg-al, N-(1-cyclohexylacetyl)-L-aspartyl-L-prolyl-L-argininal], the 50% inhibitory concentration (IC50) in test [1] was found to be 140 nM; in test [2], 130 nM; in test [3], 53.9 nM.
Take “N-(3-phenylpropanyl)-L-aspartyl-L-prolyl-L-argininal [HCA-Asp-Pro-Arg-al]”: the values for the IC50 in test [1], in test [2] and in test [3] were 326 nM, 91.5 nM and 234 nM, respectively. The “Clot Size” value is 48.38±24.71% in test [4] (Group1: 25µg/kg/min i.v. infusion); 22.38±21.0 % in test [4] (Group2: 50µg/kg/min i.v. infusion, p<0.01 vs Control); 3.38±5.44 % in test [4] (Group3: 100µg/kg/min i.v. infusion, p<0.01 vs Control).
For the molecule `CC(C)CCC(=O)N[C@@H](CC(=O)O)C(=O)N1CCC[C@H]1C(=O)N[C@H](C=O)CCCNC(=N)N` [4MeV-Asp-Pro-Arg-al, N-(4-methylpentanoyl)-L-aspartyl-L-prolyl-L-argininal], the IC50 was found to be 843 nM in test [1], 57 nM in test [2] and 147 nM in test [3].
For “N-Boc-D-phenylalanyl-L-aspartyl-L-prolyl-L-argininal [Boc-(D-Phe)-Pro-Arg-al, reference compound]”, the IC50 in test [1] was found to be 1000 nM; in test [3], 4.6 nM.
As to `COC(=O)C[C@H](NC(=O)CCc1ccccc1)C(=O)N1CCC[C@H]1C(=O)N[C@H](C=O)CCCNC(=N)N` [HCA-Asp(OCH3)-Pro-Arg-al, N-(3-phenylpropanoyl)-L-aspartyl-β-(methyl ester)-L-prolyl-L-argininal] (Hydrocinnamoyl-Asp(OMe)-Pro-Arg-aldehyde), the IC50 in test [1] is 546 nM; in test [2] it was 213 nM; in test [3], 43.7 nM.
On to `N=C(N)NCCC[C@@H](C=O)NC(=O)[C@@H]1CCCN1C(=O)[C@H](CC(=O)O)NC(=O)CCC1CCCCC1` [ChxPA-Asp-Pro-Arg-al, N-(3-cyclohexanepropionyl)-L-aspartyl-L-prolyl-L-argininal], for which the IC50 in test [1] was determined as 830 nM; in test [2], 31 nM; in test [3], 52.9 nM.
